Measurements: patent publication US7943607B2, “Heteroaryl benzamide derivatives for use as GLK activators in the treatment of diabetes” (AstraZeneca AB, priority 2005, dated 2011)

Experiments:
Zucker obese fa/fa rats = experiment: Oral Glucose Tolerance Test (OGTT); format: in vivo, rat; conditions: 10 mg/kg; given orally 120 minutes before oral glucose 2 g/kg; Zucker obese fa/fa rats on high fat diet
Method: Oral glucose tolerance tests were done on conscious Zucker obese fa/fa rats (age 12-13 weeks or older) fed a high fat diet (45% kcal fat) for at least two weeks prior to experimentation. The animals were fasted for 2 hours before use for experiments. A test compound or a vehicle was given orally 120 minutes before oral administration of a glucose solution at a dose of 2 g/kg body weight. Blood glucose levels were measured using a Accucheck glucometer from tail bled samples taken at different time points before and after administration of glucose (time course of […]). A time curve of the blood glucose levels was generated and the area-under-the-curve (AUC) for 120 minutes was calculated (the time of glucose administration being time zero). Percent reduction in glucose excursion was determined using the AUC in the vehicle-control group as zero percent reduction.

[1] = target: T1, recombinant human pancreatic GLK (Homo sapiens, UniProt P35557); experiment: biochemical
T1 sequence (P35557 1-465): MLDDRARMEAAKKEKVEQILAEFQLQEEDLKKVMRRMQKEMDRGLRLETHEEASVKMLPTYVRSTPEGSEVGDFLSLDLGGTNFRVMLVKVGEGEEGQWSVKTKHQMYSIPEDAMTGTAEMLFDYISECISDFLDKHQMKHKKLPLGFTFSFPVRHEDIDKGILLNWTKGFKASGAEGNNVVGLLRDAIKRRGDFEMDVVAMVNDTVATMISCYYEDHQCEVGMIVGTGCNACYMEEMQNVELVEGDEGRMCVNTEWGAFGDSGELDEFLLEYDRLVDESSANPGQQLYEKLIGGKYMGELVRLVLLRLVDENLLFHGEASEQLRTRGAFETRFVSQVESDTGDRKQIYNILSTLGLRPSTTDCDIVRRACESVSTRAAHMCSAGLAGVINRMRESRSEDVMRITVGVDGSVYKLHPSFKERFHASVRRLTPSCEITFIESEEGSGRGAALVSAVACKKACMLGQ

Compound: C[C@@H](CO)Oc1cc(Oc2cc3c(cc2F)S(=O)(=O)CCCO3)cc(C(=O)Nc2ccn(C)n2)c1 [Example 3, 3-[(7-Fluoro-5,5-dioxido-3,4-dihydro-2H-1,5-benzoxathiepin-8-yl)oxy]-5-[(1S)-2-hydroxy-1-methylethoxy]-N-(1-methyl-1H-pyrazol-3-yl)benzamide]
- OGTT activity (percent reduction in glucose excursion, AUC vs vehicle control) (Zucker obese fa/fa rats): 29%
- EC50 [1]: 38 nM
